Reference: US20240398831A1, “COMPOSITIONS COMPRISING SMALL MOLECULE REGULATORS OF TUMOR IMMUNITY AND METHODS OF USING SAME” (Duke University, priority 2021, published 2024)

Columns and labels:
YuMM5.2 cells = experiment: Quantitative PCR of Wnt5A-β-catenin targets in melanoma tumor cells; type: cell-based, mouse
B16F10 tumors = experiment: B16F10 syngeneic melanoma tumor model in ovariectomized mice (tumor growth, flow cytometry); type: in vivo, mouse
Method: (§1) Tumor models and cells. The mouse B16F10 and Yumm5.2 cell lines were purchased from American Type Culture Collection (ATCC, Manassas, VA). The mouse melanoma cell line BPD6 was established from iBP as described elsewhere (Zhao et al., Immunity 2018, 48, 147-160). B16F10 and BPD6 cells were maintained in Dulbecco's Modified Eagle's Medium (DMEM) supplemented with 8% fetal bovine serum (FBS), 0.1 mM non-essential amino acids (NEAA) and 1 mM sodium pyruvate. YuMM5.2 cells were maintained in DMEM/F12 media supplemented with 10% FBS. The cells were replated 3 times/week at a confluency of 1:10 and were kept in a 37° C. incubator at 5% CO2. For subcutaneous tumor models B16F10 (5×10^4 or 1×10^5), YuMM5.2 (5×10^5), and BPD6 (5×10^5) cells were injected into the right flank of the mice. For iBP mice, tumors were induced with a single intradermal dose of 4-hydroxytamoxifen in DMSO (150 μg/mouse). Tumors were measured thrice weekly using an electronic caliper. Tumor volumes were calculated by the formula V=L×(W×W)/2. For iBP mouse tumors, volumes were calculated by the formula V=L×B×H. For tumor growth rate studies mice were euthanized when the tumors reached a maximum size of 2000 mm^3.
(§2) Ovarlectomy and subcutaneous pellet Insertion. Ovariectomy was performed as previously described (Nelson et al., Science 2013, 342, 1094-1098). Eight days prior to tumor inoculation, 7 weeks old C57BL/6J or 5 weeks old (iBP) female mice were subjected to ovariectomy or sham surgery. Mice were anesthetized in an inhalation chamber (2% Isoflurane) and maintained in half the dose of isoflurane (1%) via nose cone throughout the surgical process. Prior to surgery, mice were administered a 5 mg/kg dose of carprofen subcutaneously. The area below the ribs was shaved with an electronic razor and the skin was sterilized by rubbing with betadine and alcohol (3× alternating). A horizontal incision was made through the skin above the ovary fat pad, followed by a vertical incision through the abdominal muscle wall. The ovary was externalized and removed using a cauterizing scissors (or returned if sham). Fat pad was replaced, and muscle walls were opposed and sutured (1-2 stitches). Following suturing, 1 drop of bupivacaine (0.25%) was added on top of the incision site. The skin was opposed, and a wound clip was placed on the incision site. This was repeated for the other ovary. The mouse was then removed from anesthesia and kept in a clean cage and monitored until conscious. The mice were monitored for recovery for 10 days.
Single cell isolation from tumors. Tumors were isolated, minced on a petri dish in media (DMEM+5% FBS), and then enzymatically digested by the addition of 100 μg/mL DNase I (D5025-150KU, Sigma-Aldrich) and 1 mg/mL collagenase (Collagenase A, Cat #10103586001, Sigma-Aldrich) for 30 mins-45 mins. For iBP models, isolated tumors were sliced into large chunks and subjected to mechanical digestion in a gentleMACS Dissociator for 30 seconds twice. Following this, tumors were digested with an enzyme cocktail containing DNase I, collagenase, and hyaluronidase (100 μg/mL) (H6254, Sigma-Aldrich) for 40 mins following a second round of mechanical digestion for 30 seconds (twice). The cells were then filtered through a 40 μm strainer to produce single cell suspensions and the enzymes were diluted by addition of additional media then spun down to remove media. Red blood cells were lysed with the addition of ACK lysis buffer (Cat #A1049201. ThermoFisher Scientific) for 4 mins at room temperature. Following red blood cell lysis, cells were washed with PBS before proceeding to flow cytometry staining or magnetic bead-based isolation.
Flow cytometry staining. Single cells suspensions (10^6 cells in 50 μL) were incubated with Live/dead fixable dead cell stain in PBS for 10 mins at 4° C. Cells were spun down at 1000×g and were incubated with anti-CD16/32 (Catalog #14-0161-85, ThermoFisher Scientific) in flow buffer (10 gms BSA in 1 L PBS+sodium azide) for 15 mins. […]

BPD6 tumors = experiment: BPD6 syngeneic melanoma tumor model in ovariectomized mice (tumor growth, flow cytometry); type: in vivo, mouse
Excerpt: FIGS. 18E-18G show quantification of M1 macrophages (MHCII^hi CD206^−ive), GZMB^+CD8^+ T cells, and PD1^+CD8^+ T cells in YuMM5.2 tumors from FIG. 18C (n=4). […] Vehicle+IgG (n=10, red), fulvestrant+IgG (n=15, blue), vehicle+ICB (n=15, black), and fulvestrant+ICB (n=15, brown). Black arrow indicates start of ICB treatment regimen. […] Vehicle+IgG (n=9, red), fulvestrant+IgG (n=8, blue), vehicle+ICB (n=9, black), and fulvestrant+ICB (n=10, brown). Black arrow indicates start of anti-PD1 treatment regimen. […] FIGS. 18A-18C are representative of two individual experiments. Data are expressed as mean 3 S.E.M. Significance was calculated by one-way ANOVA followed by Bonferroni's multiple correction (FIG. 18K), by Student's t test (FIG. 18L), and by log rank test (FIG. 18M) (*p<0.05, **p<0.01, and ***p<0.001).
as §1, §2
Fulvestrant treatment Mice were injected with fulvestrant (Cat #HY-13636 MedChemExpress) 2 days after tumor injection at a dose of 25 mg/kg via intramuscular route. […]

[1] = E2 vs placebo, ovariectomized C57BL/6J
[2] = fulvestrant 25 mg/kg, E2 supplemented mice

Compound	expression of WNT5A-β-catenin targets (YuMM5.2 cells; E2 (1 nM))	tumor promoting effects of E2, tumor cells co-mixed with BMDM (1:1) (B16F10 tumors; BMDM from Esr1^f/f, LysMCre versus Esr1^f/f)	tumor growth (B16F10 tumors; [1])	tumor growth (B16F10 tumors; Esr1^f/f and LysMCre control mice)	tumor growth (B16F10 tumors; Esr1^f/f, LysMCre mice (myeloid ERα knockout))	infiltration of immune cells (CD45+) (B16F10 tumors; flow cytometry, E2 vs placebo)	percentage of Ly6C+/Ly6G+ MDSCs in tumors (B16F10 tumors; flow cytometry, E2 vs placebo)	ratio of intratumoral M1 (MHCII^hi CD206−) to M2 (MHCII^lo CD206+/hi) macrophages (B16F10 tumors; flow cytometry, E2 vs placebo)	tumor growth (BPD6 tumors; [1])	percentage of Ly6C+/Ly6G+ MDSCs in tumors (BPD6 tumors; flow cytometry, E2 vs placebo)	expression of WNT5A-β-catenin targets (YuMM5.2 cells; E2 (1 nM)+fulvestrant (100 nM))	tumor growth (B16F10 tumors; [2])	intratumoral M1/M2 ratio (BPD6 tumors; E2 treated mice co-treated with fulvestrant)	tumor growth (BPD6 tumors; PD1 sensitive model, fulvestrant alone)	tumor growth (BPD6 tumors; [2])
17β-estradiol [E2]	did not change	significantly compromised	significantly increased	increased	not evident	not impacted by treatment	no changes	decreases	significantly increased	no changes					
C[C@]12CC[C@@H]3c4ccc(O)cc4C[C@@H](CCCCCCCCC[S+]([O-])CCCC(F)(F)C(F)(F)F)[C@H]3[C@@H]1CC[C@@H]2O (stereo partly drawn) [fulvestrant]											did not change	significantly reduced	increase	slows tumor growth	significantly reduced
